Test results reported in US20250320213A1, “Nitrogen-Containing Heterocyclic Compounds” (Pfizer Inc., priority 2024, published 2025).
pEC50: −log10 of the molar value.

Biological target: T1, STAT6 (Homo sapiens, UniProt P42226)
T1 construct: stably transfected HaCaT keratinocyte cell line, which expresses NanoLuc luciferase reporter gene under the transcriptional control of the STAT6 responsive promoter; endogenous in cells; host or cells: HaCaT keratinocyte reporter cell line (stably transfected with a NanoLuc reporter)
T1 sequence (P42226 1-847): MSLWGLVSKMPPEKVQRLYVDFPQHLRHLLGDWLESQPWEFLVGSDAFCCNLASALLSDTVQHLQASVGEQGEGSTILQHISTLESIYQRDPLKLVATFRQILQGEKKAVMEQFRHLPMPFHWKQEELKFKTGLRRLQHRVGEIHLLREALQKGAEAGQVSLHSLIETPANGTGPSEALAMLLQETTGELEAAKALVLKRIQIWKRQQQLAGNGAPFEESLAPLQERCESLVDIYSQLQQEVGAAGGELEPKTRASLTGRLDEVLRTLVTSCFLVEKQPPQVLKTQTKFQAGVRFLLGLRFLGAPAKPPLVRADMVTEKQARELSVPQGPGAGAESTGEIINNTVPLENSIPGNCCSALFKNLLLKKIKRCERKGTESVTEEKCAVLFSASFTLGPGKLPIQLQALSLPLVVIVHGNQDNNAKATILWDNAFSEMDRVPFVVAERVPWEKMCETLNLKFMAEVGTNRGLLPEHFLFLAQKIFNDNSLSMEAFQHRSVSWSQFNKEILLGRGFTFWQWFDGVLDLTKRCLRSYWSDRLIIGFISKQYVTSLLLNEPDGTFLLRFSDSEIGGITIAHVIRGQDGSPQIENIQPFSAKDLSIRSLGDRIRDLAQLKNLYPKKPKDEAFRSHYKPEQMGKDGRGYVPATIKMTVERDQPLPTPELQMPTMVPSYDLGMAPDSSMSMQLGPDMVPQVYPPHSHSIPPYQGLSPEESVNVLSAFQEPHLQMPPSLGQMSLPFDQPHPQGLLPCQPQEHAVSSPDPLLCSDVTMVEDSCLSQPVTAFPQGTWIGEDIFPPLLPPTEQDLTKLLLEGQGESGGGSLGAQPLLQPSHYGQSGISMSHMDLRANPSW
Assay: STAT6 Reporter Luciferase Assay (IL-13 stimulated HaCaT keratinocyte NanoLuc reporter cells)
Format: cell-based
Details: IL-13 stimulated HaCaT STAT6 NanoLuc reporter cells; read-out: Reporter EC50
Outline: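 Cells were plated overnight, washed, exposed to compound for two hours, stimulated with IL-13 (0.12 nM final) for four hours at 37 °C, and then lysed with Nano-Glo substrate for 15 min before luminescence reading.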

Compound	pEC50
CC(C)n1nc(C(=O)NCc2ccc(NC(=O)N3CCN(C)[C@@H](C)C3)c(F)c2)c2c1[C@@H](C)CN(c1ccc(C(=O)N(C)C)cc1)C2 [Example 680, (S)-5-(4-(dimethylcarbamoyl)phenyl)-N-(4-((S)-3,4-dimethylpiperazine-1-carboxamido)-3-fluorobenzyl)-1-isopropyl-7-methyl-4,5,6,7-tetrahydro-1H-pyrazolo[4,3-c]pyridine-3-carboxamide]	8.70
CC(C)n1nc(C(=O)NCc2ccc(NC(=O)N3CC[C@@H](CN(C)C)C3)c(F)c2)c2c1[C@@H](C)CN(c1ccc(C(=O)N(C)C)cc1)C2 [Example 681, (S)-N-(4-((S)-3-((dimethylamino)methyl)pyrrolidine-1-carboxamido)-3-fluorobenzyl)-5-(4-(dimethylcarbamoyl)phenyl)-1-isopropyl-7-methyl-4,5,6,7-tetrahydro-1H-pyrazolo[4,3-c]pyridine-3-carboxamide]	8.52
CC(C)n1nc(C(=O)NCc2ccc(NC(=O)N3CCC[C@@H](N(C)C)C3)c(F)c2)c2c1[C@@H](C)CN(c1ccc(C(=O)N(C)C)cc1)C2 [Example 682, (S)-N-(4-((R)-3-(dimethylamino)piperidine-1-carboxamido)-3-fluorobenzyl)-5-(4-(dimethylcarbamoyl)phenyl)-1-isopropyl-7-methyl-4,5,6,7-tetrahydro-1H-pyrazolo[4,3-c]pyridine-3-carboxamide]	8.40
CC(C)n1nc(C(=O)NCc2ccc(NC(=O)N3CCC[C@H](N(C)C)C3)c(F)c2)c2c1[C@@H](C)CN(c1ccc(C(=O)N(C)C)cc1)C2 [Example 683, (S)-N-(4-((S)-3-(dimethylamino)piperidine-1-carboxamido)-3-fluorobenzyl)-5-(4-(dimethylcarbamoyl)phenyl)-1-isopropyl-7-methyl-4,5,6,7-tetrahydro-1H-pyrazolo[4,3-c]pyridine-3-carboxamide]	8.52
CC(C)n1nc(C(=O)NCc2ccc(NC(=O)N3CC[C@H](CN(C)C)C3)c(F)c2)c2c1[C@@H](C)CN(c1ccc(C(=O)N(C)C)cc1)C2 [Example 684, (S)-N-(4-((R)-3-((dimethylamino)methyl)pyrrolidine-1-carboxamido)-3-fluorobenzyl)-5-(4-(dimethylcarbamoyl)phenyl)-1-isopropyl-7-methyl-4,5,6,7-tetrahydro-1H-pyrazolo[4,3-c]pyridine-3-carboxamide]	8.70
CC(C)n1nc(C(=O)NCc2ccc(NC(=O)N3CCN4CCCC[C@@H]4C3)c(F)c2)c2c1[C@@H](C)CN(c1ccc(C(=O)N(C)C)cc1)C2 [Example 687, (R)-N-(4-(((S)-5-(4-(dimethylcarbamoyl)phenyl)-1-isopropyl-7-methyl-4,5,6,7-tetrahydro-1H-pyrazolo[4,3-c]pyridine-3-carboxamido)methyl)-2-fluorophenyl)octahydro-2H-pyrido[1,2-a]lpyrazine-2-carboxamide]	9.00
CC(C)n1nc(C(=O)NCc2ccc(NC(=O)N3CCN4CCC[C@@H]4C3)c(F)c2)c2c1[C@@H](C)CN(c1ccc(C(=O)N(C)C)cn1)C2 [Example 690, (S)-5-(5-(dimethylcarbamoyl)pyridin-2-yl)-N-(3-fluoro-4-((R)-octahydropyrrolo[1,2-a]lpyrazine-2-carboxamido)benzyl)-1-isopropyl-7-methyl-4,5,6,7-tetrahydro-1H-pyrazolo[4,3-c]pyridine-3-carboxamide]	9.00
CC(C)n1nc(C(=O)NCc2ccc(NC(=O)N3CCN4CCC[C@@H]4C3)cc2)c2c1[C@@H](C)CN(c1ccc(C(=O)N(C)C)cn1)C2 [Example 691, (S)-5-(5-(dimethylcarbamoyl)pyridin-2-yl)-1-isopropyl-7-methyl-N-(4-((R)-octahydropyrrolo[1,2-a]pyrazine-2-carboxamido)benzyl)-4,5,6,7-tetrahydro-1H-pyrazolo[4,3-c]pyridine-3-carboxamide]	9.00
CC(C)n1nc(C(=O)NCc2ccc(NC(=O)N3CCC(C(=O)O)CC3)c(F)c2)c2c1[C@@H](C)CN(c1ccc(C(=O)N(C)C)cc1)C2 [Example 734, (S)-1-((4-((5-(4-(dimethylcarbamoyl)phenyl)-1-isopropyl-7-methyl-4,5,6,7-tetrahydro-1H-pyrazolo[4,3-c]pyridine-3-carboxamido)methyl)-2-fluorophenyl)carbamoyl)piperidine-4-carboxylic acid]	7.42
CC(C)n1nc(C(=O)NCc2ccc(NC(=O)N3CCN(C)[C@@H](C)C3)cc2)c2c1[C@@H](C)CN(c1ccc(C(=O)N(C)C)cc1)C2 [Example 735, (S)-5-(4-(dimethylcarbamoyl)phenyl)-N-(4-((S)-3,4-dimethylpiperazine-1-carboxamido)benzyl)-1-isopropyl-7-methyl-4,5,6,7-tetrahydro-1H-pyrazolo[4,3-c]pyridine-3-carboxamide]	9.00
CC(C)n1nc(C(=O)NCc2ccc(NC(=O)N3CC[C@@H](CN(C)C)C3)cc2)c2c1[C@@H](C)CN(c1ccc(C(=O)N(C)C)cc1)C2 [Example 736, (S)-N-(4-((S)-3-((dimethylamino)methyl)pyrrolidine-1-carboxamido)benzyl)-5-(4-(dimethylcarbamoyl)phenyl)-1-isopropyl-7-methyl-4,5,6,7-tetrahydro-1H-pyrazolo[4,3-c]pyridine-3-carboxamide]	9.00
CC(C)n1nc(C(=O)NCc2ccc(NC(=O)N3CCC4(CC3)CN(C)CCO4)cc2)c2c1[C@@H](C)CN(c1ccc(C(=O)N(C)C)cc1)C2 [Example 738, (S)-N-(4-((5-(4-(dimethylcarbamoyl)phenyl)-1-isopropyl-7-methyl-4,5,6,7-tetrahydro-1H-pyrazolo[4,3-c]pyridine-3-carboxamido)methyl)phenyl)-4-methyl-1-oxa-4,9-diazaspiro[5.5]undecane-9-carboxamide]	9.00

Now from value to compound:

pEC50	Compound
8.70	CC(C)n1nc(C(=O)NCc2ccc(NC(=O)NC3(C)CNC3)c(F)c2)c2c1[C@@H](C)CN(c1ccc(C(=O)N(C)C)cc1)C2 [Example 685, (S)-5-(4-(dimethylcarbamoyl)phenyl)-N-(3-fluoro-4-(3-(3-methylazetidin-3-yl)ureido)benzyl)-1-isopropyl-7-methyl-4,5,6,7-tetrahydro-1H-pyrazolo[4,3-c]pyridine-3-carboxamide]
9.00	CC(C)n1nc(C(=O)NCc2ccc(NC(=O)N3CCN(C)[C@H](C)C3)c(F)c2)c2c1[C@@H](C)CN(c1ccc(C(=O)N(C)C)cc1)C2 [Example 686, (S)-5-(4-(dimethylcarbamoyl)phenyl)-N-(4-((R)-3,4-dimethylpiperazine-1-carboxamido)-3-fluorobenzyl)-1-isopropyl-7-methyl-4,5,6,7-tetrahydro-1H-pyrazolo[4,3-c]pyridine-3-carboxamide]
9.00	COC[C@H]1CN(C(=O)Nc2ccc(CNC(=O)c3nn(C(C)C)c4c3CN(c3ccc(C(=O)N(C)C)cn3)C[C@@H]4C)cc2F)CCN1 [Example 688, (S)-5-(5-(dimethylcarbamoyl)pyridin-2-yl)-N-(3-fluoro-4-((R)-3-(methoxymethyl)piperazine-1-carboxamido)benzyl)-1-isopropyl-7-methyl-4,5,6,7-tetrahydro-1H-pyrazolo[4,3-c]pyridine-3-carboxamide]
9.00	COC[C@H]1CN(C(=O)Nc2ccc(CNC(=O)c3nn(C(C)C)c4c3CN(c3ccc(C(=O)N(C)C)cc3)C[C@@H]4C)cc2F)CCN1 [Example 689, (S)-5-(4-(dimethylcarbamoyl)phenyl)-N-(3-fluoro-4-((R)-3-(methoxymethyl)piperazine-1-carboxamido)benzyl)-1-isopropyl-7-methyl-4,5,6,7-tetrahydro-1H-pyrazolo[4,3-c]pyridine-3-carboxamide]
6.47	CC(C)n1nc(C(=O)NCc2ccc(NC(=O)N(C)CCC(=O)O)c(F)c2)c2c1[C@@H](C)CN(c1ccc(C(=O)N(C)C)cc1)C2 [Example 733, (S)-3-(3-(4-((5-(4-(dimethylcarbamoyl)phenyl)-1-isopropyl-7-methyl-4,5,6,7-tetrahydro-1H-pyrazolo[4,3-c]pyridine-3-carboxamido)methyl)-2-fluorophenyl)-1-methylureido)propanoic acid]
9.00	CC(C)n1nc(C(=O)NCc2ccc(NC(=O)N3CCN4CCCC[C@H]4C3)cc2)c2c1[C@@H](C)CN(c1ccc(C(=O)N(C)C)cc1)C2 [Example 737, (S)-N-(4-(((S)-5-(4-(dimethylcarbamoyl)phenyl)-1-isopropyl-7-methyl-4,5,6,7-tetrahydro-1H-pyrazolo[4,3-c]pyridine-3-carboxamido)methyl)phenyl)octahydro-2H-pyrido[1,2-a]pyrazine-2-carboxamide]
